Reference: publication PMC6272674, “Selected Compounds Structurally Related to Acyclic Sesquiterpenoids and Their Antibacterial and Cytotoxic Activity” (Molecules, 2015)
pIC50: −log10 of the molar value. Values after ≈ are worked out from the molar mass of the structure shown.

Legend:
[1] = test system: Escherichia coli ATCC 25922; test: Micro-dilution broth MIC, Escherichia coli; format: cell-based; settings: ATCC25922, 24 h, 37 °C, read-out: Minimum Inhibitory Concentrations MIC
Method: (§1) The standard strains, Gram-positive: Staphylococcus aureus ATCC […], Enterococcus faecalis Van B ATCC 51299 and Enterococcus faecium VA sensitive ATCC 35667, and Gram-negative: Escherichia coli ATCC 25922, Klebsiella pneumoniae ATCC 700603 and Acinetobacter baumannii ATCC 19606, came from a collection of the Environmental Biology Department, Medical University of Łódź. The standard strains were cultivated in Columbia Agar Medium and incubated at 37 °C for 24 h in aerobic conditions.
(§2) The antibacterial activity of the racemates and E/Z-mixtures was investigated using the micro‑dilution broth method. The compounds were diluted in ethanol. This stock solution was mixed with 100 µL of Mueller-Hinton broth to obtain concentrations from 10 µg/mL to 80 µg/mL. The mixtures were then transferred to 96-well microtiter plates. The microbial suspension was standardised to a cell density of 1.5 × 10^8 CFU, which was equal to an optical density of 0.5 on the Mc Farland scale by a bio-Merieux densitometer; one well was filled with broth only to act as a control for strain growth.

[2] = test system: Keratinocytes HaCaT; test: MTT viability, HaCaT; format: cell-based, human; settings: Homo sapiens, 24 h, range 10–1000 µM, read-out: half maximal inhibitory concentration (IC50), interpolated
Method: (§3) Cell lines and in vitro culture conditions: The human promyelocytic leukaemia cell line HL-60 was obtained from the Centre of Molecular and Macromolecular Biology in Łódź, Poland and was cultured in RPMI 1640 medium with 20% heat-inactivated fetal bovine serum (FBS). To reduce spontaneous differentiation, the cells were never allowed to exceed a concentration of 1.0 × 10^6 cells/mL. The human keratinocyte cell line HaCaT was obtained from Cell Lines Service, Germany (CLS) and cultured in DMEM medium with 10% FBS. Human colorectal adenocarcinoma HT29 and normal epithelial IEC-6 cell lines (from ATCC) were cultured in DMEM medium with 10% FBS. The human skin melanoma cell line MEWO (from CLS) was cultured in DMEM:F12 supplemented with 2 mM L-glutamine and 10% FBS. Human fibroblasts from gingiva isolated from original tissue, HFIB-G, (from Provitro) were cultured in Quantum 333 (from Immunique). The media were supplemented with 100 U/mL penicillin and 100 µg/mL streptomycin; all media components were obtained from Life Technologies. The adherent cell lines used in the studies were seeded on microplates before they exceeded 80% of confluence. Cells were cultured at 37 °C in 5% CO2 air atmosphere/95% air atmosphere.
(§4) Cytotoxic activity: The cells (the density for HL-60 was 0.5 × 10^4 cells/100 µL, otherwise it was 1 × 10^4 cells/100 µL) were plated into each well of 96-well microtiter plates and, after their attachment to the plate surface, treated with 10 µL of the indicated concentrations of compounds for 24 h. Viability was determined by MTT assay following the treatment. MTT (3-[4.5-dimethylthiazol-2-yl]-2.5-diphenyltetrazolium bromide; Sigma, St. Louis, MO, USA) solution was added to each well and incubated for another 4 h. The resulting MTT-formazan product was dissolved by the addition of lysis buffer (20% SDS and 50% DMF). The amount of formazan was determined by measuring absorbance at 570 nm with a Synergy 2 microplate reader (BioTek, Winooski, VT, USA) operated by the Gen5 program. The experiments were conducted three times with five replications. The results are expressed as an optical density ratio of the treatment to control. All data are presented as means ± SD.

[3] = test system: Klebsiella pneumoniae ATCC 700603; test: Micro-dilution broth MIC, Klebsiella pneumoniae; format: cell-based; settings: ATCC700603, 24 h, 37 °C, read-out: Minimum Inhibitory Concentrations MIC
Method: as §1, §2

[4] = MTT viability, HT29; format: cell-based, human; settings: human, HT29 colorectal adenocarcinoma cells, 1000 µM (IC50 exceeded 1000 µM), read-out: viability ± standard deviation at 1000 µM
Method: as §3, §4

[5] = MTT viability, IEC6; format: cell-based; settings: rat, IEC-6 small intestine epithelial cells, 1000 µM (IC50 exceeded 1000 µM), read-out: viability ± standard deviation at 1000 µM
Method: as §3, §4

[6] = test system: Staphylococcus aureus ATCC 43300; test: Micro-dilution broth MIC, Staphylococcus aureus; format: cell-based; settings: ATCC43300, 24 h, 37 °C, read-out: Minimum Inhibitory Concentrations MIC
Method: as §1, §2

[7] = test system: Acinetobacter baumannii ATCC 19606; test: Micro-dilution broth MIC, Acinetobacter baumannii; format: cell-based; settings: ATCC19606, 24 h, 37 °C, read-out: Minimum Inhibitory Concentrations MIC
Method: as §1, §2

[8] = test system: Promyelocytic Leukaemia HL-60; test: MTT viability, HL-60; format: cell-based, human; settings: Homo sapiens, HL-60, 24 h, HL-60, MTT, range 10–1000 µM, read-out: half maximal inhibitory concentration (IC50), interpolated
Method: as §3, §4

[9] = test system: Fibroblasts HFIG; test: MTT viability, HFIG; format: cell-based, human; settings: Homo sapiens, Fibroblast, 24 h, range 10–1000 µM, read-out: half maximal inhibitory concentration (IC50), interpolated
Method: as §3, §4

[10] = test system: Enterococcus faecium ATCC 35667; test: Micro-dilution broth MIC, Enterococcus faecium; format: cell-based; settings: ATCC35667, 24 h, 37 °C, read-out: Minimum Inhibitory Concentrations MIC
Method: as §1, §2

[11] = test system: Malignant Melanoma MEWO; test: MTT viability, MEWO; format: cell-based, human; settings: Homo sapiens, 24 h, range 10–1000 µM, read-out: half maximal inhibitory concentration (IC50), interpolated
Method: as §3, §4

[12] = test system: Enterococcus faecalis ATCC 51299; test: Micro-dilution broth MIC, Enterococcus faecalis; format: cell-based; settings: ATCC51299, 24 h, 37 °C, read-out: Minimum Inhibitory Concentrations MIC
Method: as §1, §2

Compound | MIC [1] | pIC50 [2] | MIC [3] | viability at 24 h, 1000 µM [4] | viability at 24 h, 1000 µM [5] | MIC [6] | MIC [7] | pIC50 [8] | pIC50 [9] | MIC [10] | pIC50 [11] | MIC [12]
CC(C)=CCCC(C)=CCCC(C)=CC=O [Farnesal (3), farnesal, reference compound] | 46 µg/mL (≈ 209 µM) | 3.15 | 44 µg/mL (≈ 200 µM) | 110% | 85% | 24 µg/mL (≈ 109 µM) | 36 µg/mL (≈ 163 µM) | 3.44 | 3.19 | 36 µg/mL (≈ 163 µM) | 3.33 | 22 µg/mL (≈ 99.8 µM)
CC(=CC=O)CCC=C(C)C(C)CCCC(C)C (stereo not drawn) [Compound 20, 3,7,8,12-Tetramethyltrideca-2,6-dienal] | 48 µg/mL (≈ 192 µM) | 3.07 | 38 µg/mL (≈ 152 µM) | 82% | 64% | 22 µg/mL (≈ 87.9 µM) | 38 µg/mL (≈ 152 µM) | 3.32 | 3.21 | 32 µg/mL (≈ 128 µM) | 3.16 | 20 µg/mL (≈ 79.9 µM)
CC(C)=CCCC(C)C(C)=CCCC(C)=CC=O (stereo not drawn) [Compound 18, 3,7,8,12-Tetramethyltrideca-2,6,11-trienal] | 52 µg/mL (≈ 209 µM) | 3.10 | 46 µg/mL (≈ 185 µM) | 98% | 79% | 18 µg/mL (≈ 72.5 µM) | 46 µg/mL (≈ 185 µM) | 3.30 | 3.16 | 28 µg/mL (≈ 113 µM) | 3.20 | 22 µg/mL (≈ 88.6 µM)
CC(=O)OCC=C(C)CCC=C(C)C(C)CCCC(C)C (stereo not drawn) [Compound 32, 3,7,8,12-Tetramethyltrideca-2,6-dien-1-yl acetate] | 28 µg/mL | 3.02 | 18 µg/mL | 103% | 92% | 28 µg/mL | 22 µg/mL | 3.56 | 3.01 | 20 µg/mL | 3.10 | 22 µg/mL
CC(C)=CCCC(C)CC(C)=CCO (stereo not drawn) [Compound 27, 3,5,9-Trimethyldeca-2,8-dien-1-ol] | 36 µg/mL (≈ 183 µM) | 3.16 | 18 µg/mL (≈ 91.7 µM) | 106% | 93% | 28 µg/mL (≈ 143 µM) | 34 µg/mL (≈ 173 µM) | 3.84 | 3.31 | 18 µg/mL (≈ 91.7 µM) | 3.34 | 26 µg/mL (≈ 132 µM)
CC(C)=CCCC(C)CC(C)C(C)=CC=O (stereo not drawn) [Compound 23, 3,4,6,10-Tetramethylundeca-2,9-dienal] | 46 µg/mL (≈ 207 µM) | 3.05 | 34 µg/mL (≈ 153 µM) | 87% | 82% | 28 µg/mL (≈ 126 µM) | 36 µg/mL (≈ 162 µM) | 3.20 | 3.10 | 36 µg/mL (≈ 162 µM) | 3.14 | 26 µg/mL (≈ 117 µM)
